Measured values taken from patent US12414958B2, “Medicament and use thereof for treating bacterial infections involving biofilm” (Debiopharm International S.A., priority 2019, dated 2025).
“And” between values parts separate entries of the source, which are not always exact repeats. Identical values can stand only once.

Experiments:
[1] = system: MSSA ATCC 29213; assay: Mouse tissue cage model of staphylococcal biofilm infection, MSSA (Example 4); assay type: in vivo, Staphylococcus aureus; conditions: 24-h biofilm MSSA ATCC 29213; 11-d treatment; cages explanted day 14
Experimental: After the incubation, tubes were vortexed again and bacterial regrowth was assessed visually. […] The efficacy of treatment against adherent bacteria is expressed as the cure rate (in percent), defined as the number of cages without growth divided by the total number of cages in the individual treatment group.

[2] = system: ATCC 43300 MRSA strain; assay: Induction of resistance studies, ex vivo bacterial exposure to 4×MIC (Example 1); assay type: cell-based, Staphylococcus aureus; conditions: ex vivo exposure to 4×MIC; single and combination therapy; 24h or 72h biofilm
Experimental: Two experimental settings were used in this study to evaluate the treatment efficacies against early (24h) and/or mature (72h) MRSA catheter formed biofilms. Briefly, mice were anaesthetised by an IP injection of about 120 μl a mix of ketamine (50 mg/kg) and xylazine (10 mg/kg) (4 mL ketamine+2 mL xylazine+10 mL saline). Flank on the right side was shaved and then disinfected by 3 consecutive applications of betadine. A cutaneous and then subcutaneous (SC) incisions of 0.2 cm were made under sterile conditions and a 1 cm segment of polyurethane catheter (Ref. No. ES-04730 Arrow international) cut into 2 longitudinal fragments was inserted SC (into the incision and then pushed further under the skin, about 2 cm away from the incision). The inoculation was done simultaneously by placing 50 μl of the bacterial culture onto the catheter (10^6 CFU of ATCC 43300 MRSA strain). The incision was stitched up and disinfected. The day of the infection was referred to as Day0 (D0). To ensure that the study was conducted in sterile conditions from the start to the end of the experiment, non-infected mice (sentinel group) were included. […] In both 24 h and 72h biofilm settings, two groups of infected non-treated animals (Vehicle controls) were evaluated for bacterial counts: at baseline (24h or D1 [for 24-h biofilm] and 72h or D3 [for 72-h biofilm] post infection, i.e. time points corresponding to treatments initiations) and at the termination of treatment duration (D6 [for 24-h biofilm] and D8 [for 72-h biofilm] post infection). Post treatment CFUs were counted on D6 or D8 and results were expressed as Log10 CFU/g of catheter (Mean±SEM). The limit of detection was determined as being 1 Log10 CFU/g of catheter. Changes of CFU/g of catheter (Δ Log10) from the baseline (D1 or D3 for 24-h and 72-h biofilm, respectively) and cure rates (corresponding to the percentage of mice without catheter-associated bacteria within a given treatment group) were also calculated. In vivo induction of antibiotic-resistant bacteria was analysed for all tested antibiotics.

[3] = system: S. aureus ATCC 43300 (MRSA); assay: Mouse tissue cage model of MRSA infection, 11-day treatment at lower dosage (Example 3); assay type: in vivo, Staphylococcus aureus; conditions: for Cure rate (%) / adherent bacteria reduction from baseline (mean±SD): 24-h biofilm; for Cure rate (%) / adherent bacteria reduction from baseline (mean±SD) / day on which bactericidal effect (mean reduction of bacterial load by ≥3 Log10) on planktonic bacteria was exerted / Planktonic day 3 Δlog from baseline (individual animal) / Planktonic day 6 Δlog from baseline (individual animal) / Planktonic day 9 Δlog from baseline (individual animal) / Planktonic day 11 Δlog from baseline (individual animal): 11-day treatment; for Cure rate (%): cages without growth / total cages; for adherent bacteria reduction from baseline (mean±SD): n=6, given as positive reduction; for Adherent Mean / Adherent Δlog from baseline (individual animal): medium after sonication of explanted tissue cages, day 14 vs day 1; for Adherent Mean: group mean; for day on which bactericidal effect (mean reduction of bacterial load by ≥3 Log10) on planktonic bacteria was exerted: planktonic bacteria in tissue cage fluid; for Planktonic day 3 Δlog from baseline (individual animal) / Planktonic day 6 Δlog from baseline (individual animal) / Planktonic day 9 Δlog from baseline (individual animal) / Planktonic day 11 Δlog from baseline (individual animal) / Planktonic day 14 Δlog from baseline (individual animal) / Planktonic day 3 Mean / Planktonic day 6 Mean / Planktonic day 9 Mean / Planktonic day 11 Mean / Planktonic day 14 Mean: tissue cage fluid; for Planktonic day 3 Δlog from baseline (individual animal) / Planktonic day 6 Δlog from baseline (individual animal) / Planktonic day 9 Δlog from baseline (individual animal) / Planktonic day 11 Δlog from baseline (individual animal): baseline day 1; for Planktonic day 14 Δlog from baseline (individual animal): 3 days after end of 11-day treatment; for Planktonic day 3 Mean / Planktonic day 6 Mean / Planktonic day 9 Mean / Planktonic day 11 Mean / Planktonic day 14 Mean: group mean Δlog from baseline
Description: The purpose of this study was to evaluate the efficacy of Debio 1450 BES alone and in combination with Daptomycin (DAP) in the mouse tissue cage model of implant-associated infections caused by methicillin resistant Staphylococcus (S.) aureus (MRSA) at lower dosage and longer treatment duration than used in the previous study (Example 2). The efficacy against 24-h biofilm of S. aureus ATCC 43300 (MRSA) was investigated. Employing a small initial inoculum (ca. 300 CFU/cage) together with a 24-h biofilm allowed to simulate clinical settings of an acute implant infection and/or surgical debridement.
The Debio 1450 BES dose of 20 mg/kg BID reflects the most current HED of 240 mg BID obtained in the recent PK studies (50 mg/kg BID was used in Example 2 based on the previous PK analysis). […] The treatment duration of 11 days was selected to compensate lowering of the dose of Debio 1450 BES (5.5-day treatment was used in Example 2) and is in line with the prolonged antibiotic therapy applied in patients with prosthetic joint infections.
The same mouse tissue cage model was employed as described in Example 2 above. The animals received antibiotic treatment i.p. on day 1 post-infection through day 11. One group received only 5% glucose and served as infected, untreated control group (vehicle). […] Debio 1450 BES and vehicle were administered bid, and DAP was administered qdam. In the present study we investigated the efficacy of lower dosage in a prolonged treatment duration.
Five to 6 days before infection, TCF was aspirated to ascertain the sterility of implanted cages by TCF plating on blood agar plates. TCF was aspirated and plated on day 1 (before treatment) to confirm the establishment of infection. In addition, the number of bacteria in TCF was determined on day 3 (before the first injection that day), on day 6, day 9 and on day 11 (before last treatment), and on day 14 (before explantation of the cages) to evaluate the treatment efficacy against planktonic bacteria. The mouse number and bacterial count for the given cage is reported to analyse the time course of antibacterial activity of the tested drugs. The efficacy against biofilm-embedded bacteria is assessed qualitatively and quantitatively following aseptic explantation of the tissue cages 3 days after the completion of treatment. The 3 days of resting period helped to avoid the antibiotic carryover effect. Upon explantation, cages were washed twice with phosphate buffered saline (PBS) (Lot #5060914) and immediately transferred into 5 mL 0.9% NaCl (Lot #L171095). Following 30 s vortexing, sonication (3 min at 130 W), and an additional 30 s vortexing step the numbers of bacteria dispersed from biofilm was determined by plating. The sonicated cages were washed once with PBS, transferred into 5 mL TSB (Lot #0286463), and incubated for 48 h at 37° C., with an additional vortexing step after 24 h of incubation. After the incubation, tubes were vortexed again and bacterial regrowth was assessed visually. In addition, 100 μL of each culture was plated on blood agar plates to ascertain the regrowth. A positive culture is defined as a treatment failure. The efficacy of treatment against adherent bacteria is expressed as the cure rate (in percent), defined as the number of cages without growth divided by the total number of cages in the individual treatment group. In addition, single colonies from the re-growth plates were used to achieve the 0.5 McFarland. 100 μl of each 0.5 McFarland culture was plated on MHA plates containing the antibiotics corresponding to the treatment used (note: bacteria from mice treated with Debio 1450 will be plated on plates containing Debio 1452).

CO[C@H]1/C=C/O[C@@]2(C)Oc3c(C)c(O)c4c(O)c(c(/C=N/N5CCN(C)CC5)c(O)c4c3C2=O)NC(=O)/C(C)=C\C=C\[C@H](C)[C@H](O)[C@@H](C)[C@@H](O)[C@@H](C)[C@H](OC(C)=O)[C@@H]1C [Rifampicin]
Cure rate (%) [1]: 100%

CCCCCCCCCC(=O)N[C@@H](Cc1c[nH]c2ccccc12)C(=O)N[C@H](CC(N)=O)C(=O)N[C@@H](CC(=O)O)C(=O)N[C@@H]1C(=O)NCC(=O)N[C@@H](CCCN)C(=O)N[C@@H](CC(=O)O)C(=O)N[C@H](C)C(=O)N[C@@H](CC(=O)O)C(=O)NCC(=O)N[C@H](CO)C(=O)N[C@@H]([C@H](C)CC(=O)O)C(=O)N[C@@H](CC(=O)c2ccccc2N)C(=O)O[C@@H]1C [Daptomycin]
emergence of resistant mutants [2]: no emergence of resistant mutants | Cure rate (%) [3]: 50% | adherent bacteria reduction from baseline (mean±SD) [3]: 3.15±2.74 log 10 CFU/mL | Adherent Mean [3]: −3 log 10 CFU/mL | Adherent Δlog from baseline (individual animal) ([3]; listed as DAP): −4.2 log 10 CFU/mL and −0.3 log 10 CFU/mL and 0.24 log 10 CFU/mL and −6 log 10 CFU/mL (2×) and −2.5 log 10 CFU/mL | day on which bactericidal effect (mean reduction of bacterial load by ≥3 Log10) on planktonic bacteria was exerted [3]: 6 day | Planktonic day 3 Δlog from baseline (individual animal) ([3]; listed as DAP): −2.56 Log10 and −2.18 Log10 and −3.12 Log10 and −2.06 Log10 and −3.41 Log10 and −3.62 Log10 | Planktonic day 6 Δlog from baseline (individual animal) ([3]; listed as DAP): −2.7 Log10 and −3.5 Log10 (2×) and −3.4 Log10 (2×) and −3.6 Log10 | Planktonic day 9 Δlog from baseline (individual animal) ([3]; listed as DAP): −4.6 Log10 and −5.5 Log10 and −2.7 Log10 and −3.4 Log10 and −3.6 Log10 (2×) | Planktonic day 11 Δlog from baseline (individual animal) ([3]; listed as DAP): −4.6 Log10 and −2.9 Log10 and −2.70 Log10 and −3.4 Log10 and −5.2 Log10 and −3.6 Log10 | Planktonic day 14 Δlog from baseline (individual animal) ([3]; listed as DAP): −4.6 Log10 and −1.1 Log10 and −1.5 Log10 and −3.4 Log10 and −0.6 Log10 and −3.6 Log10 | Planktonic day 3 Mean [3]: −3 Log10 | Planktonic day 6 Mean [3]: −3.33 Log10 | Planktonic day 9 Mean [3]: −3.9 Log10 | Planktonic day 11 Mean [3]: −3.73 Log10 | Planktonic day 14 Mean [3]: −2 Log10

Cc1c(CN(C)C(=O)/C=C/c2cnc3c(c2)CCC(=O)N3COP(=O)(O)O)oc2ccccc12 [Debio 1450, {6-[(1E)-3-{methyl [(3-methyl-1-benzofuran-2-yl)methyl]amino}-3-oxoprop-1-en-1-yl]-2-oxo-3,4-dihydro-1,8-naphthyridin-1 (2H)-yl} methyl dihydrogen phosphate]
Cure rate (%) [3]: 83% | adherent bacteria reduction from baseline (mean±SD) [3]: 4.35±2.5 log 10 CFU/mL | Adherent Δlog from baseline (individual animal) [3]: −4.2 log 10 CFU/mL (2×) and 0.43 log 10 CFU/mL and −6 log 10 CFU/mL (3×) | Adherent Mean [3]: −4 log 10 CFU/mL | day on which bactericidal effect (mean reduction of bacterial load by ≥3 Log10) on planktonic bacteria was exerted [3]: 6 day | Planktonic day 3 Δlog from baseline (individual animal) [3]: −1.46 Log10 and −3.68 Log10 and −2.22 Log10 and −3.33 Log10 and −3.03 Log10 and −2.37 Log10 | Planktonic day 6 Δlog from baseline (individual animal) [3]: −3.1 Log10 and −3.7 Log10 (2×) and −4.2 Log10 and −3.3 Log10 and −3 Log10 | Planktonic day 9 Δlog from baseline (individual animal) [3]: −3.1 Log10 and −3.7 Log10 and −6.2 Log10 and −3.3 Log10 and −3 Log10 and −5.3 Log10 | Planktonic day 11 Δlog from baseline (individual animal) [3]: −3.1 Log10 and −3.7 Log10 and −6.2 Log10 and −3.3 Log10 and −3 Log10 and −5.3 Log10 | Planktonic day 14 Δlog from baseline (individual animal) [3]: −3.1 Log10 and −3.7 Log10 and −0.2 Log10 and −3.3 Log10 and −3 Log10 and −5.3 Log10 | Planktonic day 3 Mean [3]: −3 Log10 | Planktonic day 6 Mean [3]: −3.50 Log10 | Planktonic day 9 Mean [3]: −4.10 Log10 | Planktonic day 11 Mean [3]: −4.10 Log10 | Planktonic day 14 Mean [3]: −3 Log10 | Cure rate (%) [1]: 14.3%
